From US20230022724A1, “NOVEL IMIDAZOPYRAZINE DERIVATIVES” (Hoffmann-La Roche Inc., priority 2018, published 2023)
Where a name gives a salt, the structure may show the parent alone.

System: Acinetobacter baumannii ATCC17978
Assay: Antimicrobial susceptibility testing: 90% growth inhibitory concentration (IC90) determination
Format: cell-based
Conditions: 90% growth inhibitory concentration, Acinetobacter baumannii ATCC17978, Iso-Sensitest broth, OD 600 nm over 16 h; read-out: ATCC17978 IC90
Experimental: The in vitro antimicrobial activity of the compounds was determined according to the following procedure:
The assay used a 10-points Iso-Sensitest broth medium to measure quantitatively the in vitro activity of the compounds against Acinetobacter baumannii ATCC17978 and Acinetobacter baumannii ATCC17961.
Stock compounds in DMSO were serially twofold diluted (e.g. range from 50 to 0.097 μM final concentration) in 384 wells microtiter plates and inoculated with 49 μl the bacterial suspension in Iso-Sensitest medium to have a final cell concentration of ˜5×10^(5) CFU/ml in a final volume/well of 50 ul/well. Microtiter plates were incubated at 35±2° C.
Bacterial cell growth was determined with the measurement of optical density at λ=600 nm each 20 minutes over a time course of 16 h. Growth inhibition was calculated during the logarithmic growth of the bacterial cells with determination of the concentration inhibiting 50% (IC50) and 90% (IC90) of the growth.
Table 1 provides the 90% growth inhibitory concentrations (IC90) in micromoles per liter of the compounds of present invention obtained against the strain Acinetobacter baumannii ATCC17978 and Acinetobacter baumannii ATCC17961.

Compound	IC90 [nM]
CNCC(=O)N1CCN(C(=O)c2ccc(Nc3nccn4c(-c5ccc(OC)c(F)c5)cnc34)cc2Cl)CC1 [Example 40, 1-(4-(2-chloro-4-((3-(3-fluoro-4-methoxyphenyl)imidazo [1,2-a]pyrazin-8-yl)amino)benzoyl)piperazin-1-yl)-2-(methylamino)ethanone]	150
CN(C)CCN1CCN(C(=O)c2ccc(Nc3nccn4c(-c5ccc(OCC#N)c(F)c5F)cnc34)cc2Cl)CC1 [Example 84, 2-[4-[8-[3-chloro-4-[4-[2-(dimethylamino)ethyl]piperazine-1-carbonyl]anilino]imidazo[1,2-a]pyrazin-3-yl]-2,3-difluorophenoxy]acetonitrile; 2,2,2-trifluoroacetic acid]	110

Same assay, conditions: Acinetobacter baumannii, ATCC17978, 16 h, 90% growth inhibitory concentration, Acinetobacter baumannii ATCC17978, Iso-Sensitest broth, OD 600 nm over 16 h; read-out: ATCC17978 IC90

IC90 [nM]	Compound
1900	COc1ccc(-c2cnc3c(Nc4ccc(C(=O)N5CCNC(C(=O)O)C5)c(Cl)c4)nccn23)c(F)c1F (stereo not drawn) [Example 1, 4-(2-chloro-4-((3-(2,3-difluoro-4-methoxyphenyl)imidazo[1,2-a]pyrazin-8-yl)amino)benzoyl)piperazine-2-carboxylic Acid]
140	N#CCOc1ccc(-c2cnc3c(Nc4ccc(C(=O)N5CCC(c6cnc[nH]6)CC5)c(Cl)c4)nccn23)c(F)c1F [Example 11, 2-[4-[8-[3-chloro-4-[4-(1H-imidazol-5-yl)piperidine-1-carbonyl]anilino]imidazo[1,2-a]pyrazin-3-yl]-2,3-difluoro-phenoxy]acetontrile; 2,2,2-trifluoroacetic acid]
140	CN(C)CCN1CCN(C(=O)c2ccc(Nc3nccn4c(-c5ccc(OC(F)F)cc5)cnc34)cc2Cl)CC1 [Example 69, [2-chloro-4-[[3-[4-(difluoromethoxy)phenyl]imidazo[1,2-a]pyrazin-8-yl]amino]phenyl]-[4-[2-(dimethylamino)ethyl]piperazin-1-yl]methanone]
320	N#CCOc1ccc(-c2cnc3c(Nc4ccc(C(=O)N5CCC(C(=O)N6CCNCC6CO)CC5)c(Cl)c4)nccn23)c(Cl)c1F (stereo not drawn) [Example 31, 2-[3-chloro-4-[8-[3-chloro-4-[4-[2-(hydroxymethyl)piperazine-1-carbonyl]piperidine-1-carbonyl]anilino]imidazo[1,2-a]pyrazin-3-yl]-2-fluoro-phenoxy]acetonitrile trifluoroacetate]
540	COc1ccc(-c2cnc3c(Nc4ccc(C(=O)N5CCC(O)(CC(=O)N(C)C)CC5)c(Cl)c4)nccn23)cc1F [Example 106, 2-(1-(2-chloro-4-((3-(3-fluoro-4-methoxyphenyl)imidazo[1,2-a]pyrazin-8-yl)amino)benzoyl)-4-hydroxypiperidin-4-yl)-N,N-dimethylacetamide]
280	N#CCOc1ccc(-c2cnc3c(Nc4ccc(C(=O)N5CCC(c6nnn[nH]6)CC5)c(Cl)c4)nccn23)c(F)c1F [Example 13, 2-[4-[8-[3-chloro-4-[4-(1H-tetrazol-5-yl)piperidine-1-carbonyl]anilino]imidazo[1,2-a]pyrazin-3-yl]-2,3-difluoro-phenoxy]acetonitrile;2,2,2-trifluoroacetic acid]
1600	COc1ccc(-c2cnc3c(Nc4ccc(C(=O)N5CC5)c(Cl)c4)nccn23)c(F)c1F [Example 9, aziridin-1-yl(2-chloro-4-((3-(2,3-difluoro-4-methoxyphenyl)imidazo[1,2-a]pyrazin-8-yl)amino)phenyl)methanone]
260	COc1ccc(-c2cnc3c(Nc4ccc(C(=O)N5CCC(C(=O)NC[C@H](O)[C@@H](O)[C@H](O)[C@H](O)CO)CC5)c(Cl)c4)nccn23)cc1F [Example 107, 1-(2-chloro-4-((3-(3-fluoro-4-methoxyphenyl)imidazo[1,2-a]pyrazin-8-yl)amino)benzoyl)-N-((2S,3R,4R,5R)-2,3,4,5,6-pentahydroxyhexyl)piperidine-4-carboxamide]
360	N#CCOc1ccc(-c2cnc3c(Nc4ccc(C(=O)N5CCN(CCN6CC(c7nnn[nH]7)C6)CC5)c(Cl)c4)nccn23)c(F)c1F [Example 105, 2-(4-(8-((4-(4-(2-(3-(2H-tetrazol-5-yl)azetidin-1-yl)ethyl)piperazine-1-carbonyl)-3-chlorophenyl)amino)imidazo [1,2-a]pyrazin-3-yl)-2,3-difluorophenoxy)acetonitrile trifluoroacetate]
690	N#CCOc1ccc(-c2cnc3c(Nc4ccc(C(=O)N5CCN(c6ncccn6)CC5)c(Cl)c4)nccn23)c(F)c1F [Example 22, 2-[4-[8-[3-chloro-4-(4-pyrimidin-2-ylpiperazine-1-carbonyl)anilino]imidazo[1,2-a]pyrazin-3-yl]-2,3-difluoro-phenoxy]acetonitrile]
570	COc1ccc(-c2cnc3c(Nc4ccc(C(=O)N5CCOCC5)cc4)nccn23)cc1Cl [Example 38, (4-((3-(3-chloro-4-methoxyphenyl)imidazo[1,2-a]pyrazin-8-yl)amino)phenyl)(morpholino)methanone]
1400	COc1ccc(-c2cnc3c(Nc4ccc(C(=O)N5CCN(C)CC5)cc4)nccn23)cc1 [Example 64, [4-[[3-(4-methoxyphenyl)imidazo[1,2-a]pyrazin-8-yl]amino]phenyl]-(4-methylpiperazin-1-yl)methanone]
1500	COc1ccc(-c2cnc3c(Nc4ccc(C(=O)N5CCCCC5)cc4)nccn23)cc1Cl [Example 65, [4-[[3-(3-chloro-4-methoxyphenyl)imidazo[1,2-a]pyrazin-8-yl]amino]phenyl]-piperidin-1-ylmethanone]

Same assay, conditions: Acinetobacter baumannii, ATCC17978, 16 h, read-out: ATCC17978 IC90

Compound	IC90 [nM]
N#CCOc1ccc(-c2cnc3c(Nc4ccc(C(=O)N5CCC(C(=O)N6CCN[C@@H](CO)C6)CC5)c(Cl)c4)nccn23)c(F)c1F [Example 85, 2-[4-[8-[3-chloro-4-[4-[(3R)-3-(hydroxymethyl)piperazine-1-carbonyl]piperidine-1-carbonyl]anilino]imidazo[1,2-a]pyrazin-3-yl]-2,3-difluorophenoxy]acetonitrile; formic acid]	46
N#CCOc1ccc(-c2cnc3c(Nc4ccc(C(=O)N5CCC(C(=O)N6CCN[C@@H](CO)C6)CC5)c(Cl)c4)nccn23)c(Cl)c1F [Example 86, 2-[3-chloro-4-[8-[3-chloro-4-[4-[(3R)-3-(hydroxymethyl)piperazine-1-carbonyl]piperidine-1-carbonyl]anilino]imidazo[1,2-a]pyrazin-3-yl]-2-fluorophenoxy]acetonitrile; formic acid]	49
Cc1cc(Nc2nccn3c(-c4ccc(OC(F)F)cc4)cnc23)ccc1C(=O)N1CCN(C(=O)N2CCN[C@H](C(=O)O)C2)CC1 [Example 82, (2S)-4-[4-[4-[[3-[4-(difluoromethoxy)phenyl]imidazo [1,2-a]pyrazin-8-yl]amino]-2-methylbenzoyl]piperazine-1-carbonyl]piperazine-2-carboxylic acid;hydrochloride]	1000
CN(C)CC1CCN(C(=O)c2ccc(Nc3nccn4c(-c5ccc(OCC#N)c(F)c5Cl)cnc34)cc2Cl)CC1 [Example 6, 2-[3-chloro-4-[8-[3-chloro-4-[4-[(dimethylamino)methyl]piperidine-1-carbonyl]anilino]imidazo[1,2-a]pyrazin-3-yl]-2-fluoro-phenoxy]acetonitrile; formic acid]	110
N#CCOc1ccc(-c2cnc3c(Nc4ccc(C(=O)N5CCC(C(=O)N6CCN[C@H](CO)C6)CC5)c(Cl)c4)nccn23)c(F)c1F [Example 87, 2-[4-[8-[3-chloro-4-[4-[(3S)-3-(hydroxymethyl)piperazine-1-carbonyl]piperidine-1-carbonyl]anilino]imidazo[1,2-a]pyrazin-3-yl]-2,3-difluorophenoxy]acetonitrile; formic acid]	52
N#CCOc1ccc(-c2cnc3c(Nc4ccc(C(=O)N5CCN(C(=O)[C@@H]6C[C@@H](O)CN6)CC5)c(Cl)c4)nccn23)c(F)c1F [Example 34, 2-[4-[8-[3-chloro-4-[4-[(2S,4R)-4-hydroxypyrrolidine-2-carbonyl]piperazine-1-carbonyl]anilino]imidazo [1,2-a]pyrazin-3-yl]-2,3-difluroo-phenoxy]acetonitrile formate]	31
N#CCOc1ccc(-c2cnc3c(Nc4ccc(C(=O)N5CCC(C(=O)N6CCN[C@H](CO)C6)CC5)c(Cl)c4)nccn23)c(Cl)c1F [Example 88, 2-[3-chloro-4-[8-[3-chloro-4-[4-[(3S)-3-(hydroxymethyl)piperazine-1-carbonyl]piperidine-1-carbonyl]anilino]imidazo[1,2-a]pyrazin-3-yl]-2-fluorophenoxy]acetonitrile; formic acid]	90
CN(C)C1CCN(CCN2CCN(C(=O)c3ccc(Nc4nccn5c(-c6ccc(OCC#N)c(F)c6F)cnc45)cc3Cl)CC2)CC1 [Example 101, 2-[4-[8-[3-chloro-4-[4-[2-[4-(dimethylamino)piperidin-1-yl]ethyl]piperazine-1-carbonyl]anilino]imidazo[1,2-a]pyrazin-3-yl]-2,3-difluorophenoxy]acetonitrile; 2,2,2-trifluoroacetic acid]	170
COc1ccc(-c2cnc3c(Nc4ccc(C(=O)N5CCN(C6CNC6)CC5)c(Cl)c4)nccn23)cc1F [Example 73, [4-(azetidin-3-yl)piperazin-1-yl]-[2-chloro-4-[[3-(3-fluoro-4-methoxyphenyl)imidazo[1,2-a]pyrazin-8-yl]amino]phenyl]methanone; hydrochloride]	530
